Assay [1] concerns Myzus persicae. Put plainly: Insecticidal activity against neonicotinoid-resistant Myzus persicae FRC-P (green peach aphid) fed on compound treated chinese cabbage discs after 72 hr. It is filed as functional. The conditions noted are these: in Brassica rapa.
The test system of assay [2] is Myzus persicae. Description: whole plant or invertebrate. It is filed as functional. The conditions noted are these: 4106A, in Brassica rapa, 72 h.
Description: Insecticidal activity against Myzus persicae 4106A (green peach aphid) fed on compound treated chinese cabbage discs after 72 hr
The subject of assay [3] is Myzus persicae. Put plainly: Displacement of [3H]-methyl-SFX from nAChR in Myzus persicae (green peach aphid) 4106A membrane at 1 ppm after 70 min. Background: Loss of bound radioactivity is the signal in a displacement assay; it reports binding, not function.
Assay [4] has as its system Myzus persicae. Description: Binding affinity to nAChR in neonicotinoid-resistant Myzus persicae FRC-P (green peach aphid) membrane at 0.05 to 16 nM after 70 min. The conditions noted are these: tested as the 3H-labelled form.
For assay [5], the system named is Myzus persicae. Put plainly: Ratio of Ki for [3H]IMD displacement to [3H]-methyl-SFX displacement from nAChR in Myzus persicae 4106A (green peach aphid) membrane. The conditions noted are these: tested as the 3H-labelled form.

Values after ≈ are worked out from the molar mass of the structure shown. Active and inactive are the calls of the source. The calls are words filed in the database; no cut-off is given here. Where only a bound is given, the exact number is not on record here.

Usually LC50 stands for the concentration that kills 50% of the test population. In the case of `CN1COCN(Cc2cnc(Cl)s2)/C1=N\[N+](=O)[O-]` [THIAMETHOXAM], the results for the LC50 in the assay with Myzus persicae [1] and in the assay with Myzus persicae [2] were 108 µg/mL (≈ 370 µM) and 0.5 µg/mL (≈ 1.71 µM), respectively.

`CON=CCCC(F)(F)c1ccc(C(C)S(C)(=O)=NC#N)cn1` (stereo unspecified) came in with an LC50 with Myzus persicae [2] of more than 100 µg/mL.

As for `O=[N+]([O-])/N=C1\NCCN1Cc1ccc(Cl)nc1` [IMIDACLOPRID], the LC50 was determined as 108 µg/mL (≈ 422 µM) with Myzus persicae [1] and 0.1 µg/mL (≈ 0.391 µM) in the assay with Myzus persicae [2].

As for `CN/C(=N\[N+](=O)[O-])NCc1cnc(Cl)s1` [CLOTHIANIDINE], the LC50 stood at 904 µg/mL (≈ 3620 µM) with Myzus persicae [1] and 0.3 µg/mL (≈ 1.2 µM) with Myzus persicae [2].

Consider `CCN(CC)c1nc(C)cc(OP(=S)(OC)OC)n1`, for which the Activity in the assay on Myzus persicae [3] was determined as 2%.

With `CN/C(=N/CC1CCOC1)N[N+](=O)[O-]` (stereo unspecified) [DINOTEFURAN], the LC50 with Myzus persicae [1] turned out to be 538 µg/mL (≈ 2660 µM); in the assay with Myzus persicae [2], 10 µg/mL (≈ 49.5 µM).

As for `C/C(=N\C#N)N(C)Cc1ccc(Cl)nc1` [ACETAMIPRID], the results for the LC50 with Myzus persicae [1] and in the assay with Myzus persicae [2] were 49.3 µg/mL (≈ 221 µM) and 0.6 µg/mL (≈ 2.69 µM), respectively.

Regarding `N#Cc1nn(-c2c(Cl)cc(C(F)(F)F)cc2Cl)c(N)c1[S+]([O-])C(F)(F)F` (stereo unspecified), the Activity in the assay with Myzus persicae [3] came to 30%.

`CS(=O)(Cc1ccc(C(F)(F)Cl)nc1)=NC#N` (stereo unspecified): the 50% lethal concentration (LC50) in the assay with Myzus persicae [2] came to 9.6 µg/mL (≈ 34.3 µM).

As to `CNC(=O)c1cc(Cl)cc(C)c1NC(=O)c1cc(Br)nn1-c1ncccc1Cl`, the Activity in the assay on Myzus persicae [3] stood at 8%.

For the molecule `CNC(=O)O/N=C/C(C)(C)SC`, the Activity in the assay on Myzus persicae [3] worked out at 0%.

For the molecule `C[C@@](F)(c1ccc(C(F)(F)F)nc1)S(C)(=O)=NC#N` (stereo partly specified), the LC50 with Myzus persicae [2] was 4.64 µg/mL (≈ 15.7 µM).

Regarding `CC[C@H](C)[C@H]1O[C@]2(C=C[C@@H]1C)C[C@@H]1C[C@@H](C/C=C(\C)[C@@H](O[C@H]3C[C@H](OC)[C@@H](O[C@H]4C[C@H](OC)[C@@H](O)[C@H](C)O4)[C@H](C)O3)[C@@H](C)/C=C/C=C3\CO[C@@H]4[C@H](O)C(C)=C[C@@H](C(=O)O1)[C@]34O)O2.CO[C@H]1C[C@H](O[C@H]2[C@H](C)O[C@@H](O[C@@H]3/C(C)=C/C[C@@H]4C[C@@H](C[C@]5(C=C[C@H](C)[C@@H](C(C)C)O5)O4)OC(=O)[C@@H]4C=C(C)[C@@H](O)[C@H]5OC/C(=C\C=C\[C@@H]3C)[C@]54O)C[C@@H]2OC)O[C@@H](C)[C@@H]1O`, the Activity in the assay with Myzus persicae [3] was -6%.

As to `CCS(=O)(=NC#N)C(C)(C)c1ccc(C(F)(F)F)nc1` (stereo unspecified), the LC50 in the assay with Myzus persicae [2] was determined as 20.5 µg/mL (≈ 67.1 µM).

As to `N#C/N=C1\SCCN1Cc1ccc(Cl)nc1` [THIACLOPRID], the LC50 in the assay on Myzus persicae [1] is more than 1000 µg/mL; with Myzus persicae [2], 0.4 µg/mL (≈ 1.58 µM).

As for `CC(c1ccc(C(F)(F)F)nc1)S(C)(=O)=NC#N` (stereo unspecified) [SULFOXAFLOR], the LC50 with Myzus persicae [1] worked out at 4.3 µg/mL (≈ 15.5 µM); with Myzus persicae [2] it was 0.08 µg/mL (≈ 0.289 µM).

On to `CC(c1ccc(C(F)(F)F)nc1)S(C)(=O)=N[N+](=O)[O-]` (stereo unspecified), for which, in the assay with Myzus persicae [2], the LC50 is more than 100 µg/mL.

As to `CCC(C)c1cc([N+](=O)[O-])cc([N+](=O)[O-])c1O` (stereo unspecified), the Activity in the assay on Myzus persicae [3] is 13%.

On to `CC1(C)[C@H](/C=C(\Cl)C(F)(F)F)[C@@H]1C(=O)O[C@@H](C#N)c1cccc(Oc2ccccc2)c1` (relative stereo), for which the Activity in the assay with Myzus persicae [3] came to 3%.

The molecule `CS(=O)(Cc1cnc(Cl)s1)=NC#N` (stereo unspecified) showed a 50% lethal concentration (LC50) in the assay on Myzus persicae [2] of 14.4 µg/mL (≈ 61.2 µM).

Take `Cc1nc(C(F)(F)F)ccc1CS(C)(=O)=NC#N` (stereo unspecified): the LC50 with Myzus persicae [2] is more than 100 µg/mL.

Take `CC(C)(c1ccc(C(F)(F)F)nc1)S(C)(=O)=NC#N` (stereo unspecified): in the assay on Myzus persicae [4], the outcome was inactive. Besides, in the assay with Myzus persicae [2], the LC50 stood at 0.45 µg/mL (≈ 1.54 µM). The Ratio Ki with Myzus persicae [5] amounted to 100.

Take `CCN(Cc1ccc(Cl)nc1)/C(=C/[N+](=O)[O-])NC` [NITENPYRAM]: the LC50 was 236 µg/mL (≈ 872 µM) in the assay with Myzus persicae [1] and 1.3 µg/mL (≈ 4.8 µM) with Myzus persicae [2].

As for `C=CCC(F)(F)c1ccc(C(C)S(C)(=O)=NC#N)cn1` (stereo unspecified), the LC50 with Myzus persicae [2] is more than 100 µg/mL.

For `CC(c1ccc(Cl)nc1)S(C)(=O)=NC#N` (stereo unspecified), the LC50 in the assay on Myzus persicae [2] was 1.4 µg/mL (≈ 5.74 µM).

`CC(c1ccc(C(F)(F)F)nc1)S(C)(=O)=NC(N)=O` (stereo unspecified) gave an LC50 in the assay on Myzus persicae [2] of more than 100 µg/mL.
